The subject of experiment [1] is Rattus norvegicus. In words: In vivo efficacy was measured using thermal escape assay. It is filed as functional.
Experiment [2] addresses Kappa-type opioid receptor (Homo sapiens, UniProt P41145). The experiment can be described thus: In vitro potency was measured against human Opioid receptor kappa 1.
In experiment [3] the target is Mu-type opioid receptor (Homo sapiens, UniProt P35372). In words: In vitro potency was measured against human Opioid receptor mu 1.
The target in experiment [4] is Delta-type opioid receptor (Homo sapiens, UniProt P41143). In words: In vitro potency was measured against human Opioid receptor delta 1.

The record followed here is ChEMBL document CHEMBL1131022, “Synthesis and biological activity of a novel methylamine-bridged enkephalin analogue (MABE): a new route to cyclic peptides and peptidomimetics” (J Med Chem, 1998).

For orientation: Ki means the equilibrium dissociation constant of an inhibitor or competing ligand from its target.

Mu-type opioid receptor, sequence (P35372 whole entry): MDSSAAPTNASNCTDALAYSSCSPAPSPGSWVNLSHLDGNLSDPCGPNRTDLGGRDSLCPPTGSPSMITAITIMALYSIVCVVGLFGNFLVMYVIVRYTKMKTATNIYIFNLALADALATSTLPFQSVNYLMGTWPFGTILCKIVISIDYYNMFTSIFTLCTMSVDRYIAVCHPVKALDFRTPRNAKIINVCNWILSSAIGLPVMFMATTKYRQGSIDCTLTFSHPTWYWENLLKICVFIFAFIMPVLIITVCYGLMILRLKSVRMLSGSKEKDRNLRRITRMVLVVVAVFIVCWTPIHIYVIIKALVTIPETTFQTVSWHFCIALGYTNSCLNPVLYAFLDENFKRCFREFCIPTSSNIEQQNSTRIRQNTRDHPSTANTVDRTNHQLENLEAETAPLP
Delta-type opioid receptor, sequence (P41143 whole entry): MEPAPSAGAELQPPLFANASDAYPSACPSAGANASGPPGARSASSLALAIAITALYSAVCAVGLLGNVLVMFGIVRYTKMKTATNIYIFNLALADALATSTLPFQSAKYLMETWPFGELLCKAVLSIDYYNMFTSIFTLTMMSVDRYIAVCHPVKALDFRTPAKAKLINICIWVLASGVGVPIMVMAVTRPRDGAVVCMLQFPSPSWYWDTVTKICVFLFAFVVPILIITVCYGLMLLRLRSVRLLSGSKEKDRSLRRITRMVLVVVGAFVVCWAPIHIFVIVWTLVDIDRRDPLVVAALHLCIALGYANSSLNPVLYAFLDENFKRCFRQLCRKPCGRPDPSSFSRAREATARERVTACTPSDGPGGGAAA
Kappa-type opioid receptor, sequence (P41145 whole entry): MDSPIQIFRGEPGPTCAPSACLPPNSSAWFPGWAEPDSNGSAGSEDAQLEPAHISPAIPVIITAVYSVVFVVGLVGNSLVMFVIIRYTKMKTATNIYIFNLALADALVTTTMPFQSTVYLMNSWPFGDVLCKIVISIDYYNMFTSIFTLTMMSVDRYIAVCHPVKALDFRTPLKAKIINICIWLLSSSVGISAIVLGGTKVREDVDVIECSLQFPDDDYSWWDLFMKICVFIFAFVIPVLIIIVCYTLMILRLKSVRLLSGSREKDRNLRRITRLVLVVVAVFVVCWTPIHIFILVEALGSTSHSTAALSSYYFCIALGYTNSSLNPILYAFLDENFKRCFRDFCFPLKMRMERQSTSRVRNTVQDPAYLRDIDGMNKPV

`CN1CCNC(=O)[C@H](Cc2ccccc2)NC(=O)CNC(=O)[C@H](NC(=O)[C@@H](N)Cc2ccc(O)cc2)C1` came in with an ED50 in experiment [1] of 0.027 µg. Besides, the Ki amounted to 340 nM in experiment [2], 1.6 nM in experiment [3] and 2.1 nM in experiment [4].

In the case of `CC1(C)SSC(C)(C)C(NC(=O)[C@@H](N)Cc2ccc(O)cc2)C(=O)NCC(=O)N[C@@H](Cc2ccccc2)C(=O)NC1C(=O)O` (single isomer, unassigned), the ED50 in experiment [1] was found to be 54 µg.

Compound `C[C@@H](NC(=O)[C@@H](N)Cc1ccc(O)cc1)C(=O)NCC(=O)N(C)[C@@H](Cc1ccccc1)C(=O)NCCO` [DAMGO] showed an ED50 in experiment [1] of 0.14 µg.

In experiment [1], `CN1CC[C@]23c4c5ccc(O)c4O[C@H]2[C@@H](O)C=C[C@H]3[C@H]1C5` [MORPHINE] gave an ED50 of 2.4 µg.
